The record followed here is ChEMBL document CHEMBL4043105, “Design and synthesis of potent and orally active GPR4 antagonists with modulatory effects on nociception, inflammation, and angiogenesis” (Bioorg Med Chem, 2017).

For data set [1], the species on record is Rattus norvegicus. As to conditions: in vivo, po, 3 mg/kg.
A short description of data set [2]: in vivo. As to conditions: Sprague-Dawley, rat, po, 3 mg/kg.
Data set [3] is filed under the species Rattus norvegicus. As to conditions: in vivo, po, 3 mg/kg. This is another data set of the same source.
The nature of data set [4]: in vivo. As to conditions: Sprague-Dawley, rat, iv, 1 mg/kg.
A short description of data set [5]: in vivo. Particulars: Sprague-Dawley, rat, iv, 1 mg/kg. The source holds these as a separate data set.

One may read the bioavailability as dose-corrected exposure relative to a reference, in per cent. Broadly, the half-life is how long it takes for the measured level to halve. Read a high half-life as slow loss. Broadly, the clearance is the rate of elimination divided by the concentration. Higher therefore signals efficient removal. `CCc1nc2c(C)cc(C)nc2n1Cc1ccc(/C=C/CN2CCN(C(C)C)CC2)cc1`: the Cmax/dose in the data set filed under Rattus norvegicus [1] came out at 193 nM. The molecule also returned a bioavailability in “in vivo [2]” of 86%. The same molecule had an AUC/dose in the data set listed under Rattus norvegicus [3] of 2196 µg·min/mL. In the data set “in vivo [4]”, this molecule showed a half-life of 5.6 h. In “in vivo [5]”, this molecule had a clearance of 15 mL/min/kg.
